Measured values as given in paper PMC11785709, “Angelica gigas Nakai (Korean Dang-gui) Root Alcoholic Extracts in Health Promotion and Disease Therapy – active Phytochemicals and In Vivo Molecular Targets” (Pharmaceutical Research, 2025).
Values joined by “and” are separate entries in the source; they are usually repeats but may differ in a detail not shown here. Equal entries are not always repeated. Where two headings read alike, the source gives them in different places.

Experiments:
[1] = system: ALK-TFG; assay: Reaction Biology kinase activity inhibition; assay type: biochemical; conditions: initial screening
From the text: (§1) The second screening was the Reaction Biology® (Malvern, PA) kinase activity inhibition tests, which screened for more than 600 protein kinases and lipid kinases, using miniaturized radioisotope-based assay platform with γ-^33P-ATP, followed by confirmation with IC50 kinase profiling service with 5 concentrations of test compound (i.e., DOH and DA) with curve fitting.

[2] = biological target: T1, ARK5/NUAK1 (Homo sapiens, UniProt O60285); assay: Reaction Biology kinase activity inhibition; assay type: biochemical; conditions: initial screening
T1 construct: purchased Reaction Biology
T1 sequence (O60285 1-661): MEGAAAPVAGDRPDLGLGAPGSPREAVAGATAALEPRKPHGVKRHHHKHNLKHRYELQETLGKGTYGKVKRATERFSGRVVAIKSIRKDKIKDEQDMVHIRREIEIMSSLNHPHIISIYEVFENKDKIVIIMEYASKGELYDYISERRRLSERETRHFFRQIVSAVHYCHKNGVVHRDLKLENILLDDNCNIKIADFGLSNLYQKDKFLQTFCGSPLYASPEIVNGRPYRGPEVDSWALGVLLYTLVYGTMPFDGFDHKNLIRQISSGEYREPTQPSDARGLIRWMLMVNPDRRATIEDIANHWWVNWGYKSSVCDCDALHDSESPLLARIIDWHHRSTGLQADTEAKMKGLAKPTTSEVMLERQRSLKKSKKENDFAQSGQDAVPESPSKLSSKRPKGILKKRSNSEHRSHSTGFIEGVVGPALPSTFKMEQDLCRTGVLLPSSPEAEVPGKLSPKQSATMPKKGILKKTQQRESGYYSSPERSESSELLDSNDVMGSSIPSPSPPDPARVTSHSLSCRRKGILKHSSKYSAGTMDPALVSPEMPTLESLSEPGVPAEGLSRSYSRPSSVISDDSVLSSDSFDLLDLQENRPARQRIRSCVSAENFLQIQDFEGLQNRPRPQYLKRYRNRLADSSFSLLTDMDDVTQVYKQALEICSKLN
From the text: as §1

[3] = biological target: T2, CLK4 (Homo sapiens, UniProt Q9HAZ1); assay: Reaction Biology kinase activity inhibition; assay type: biochemical; conditions: initial screening
T2 construct: purchased Reaction Biology
From the text: as §1

[4] = biological target: T3, IRAK1 (Homo sapiens, UniProt P51617); assay: Reaction Biology kinase activity inhibition; assay type: biochemical; conditions: initial screening
T3 construct: purchased Reaction Biology
From the text: as §1

[5] = biological target: T4, JNK2 (Homo sapiens, UniProt P45984); assay: Reaction Biology kinase activity inhibition; assay type: biochemical; conditions: initial screening
T4 construct: purchased Reaction Biology
From the text: as §1

[6] = biological target: T5, LRRK2 (G2019S) (Homo sapiens, UniProt Q5S007, G2019S); assay: Reaction Biology kinase activity inhibition; assay type: biochemical; conditions: initial screening
T5 construct: purchased Reaction Biology
From the text: as §1

[7] = biological target: T6, PIM1 (Homo sapiens, UniProt P11309); assay: Reaction Biology kinase activity inhibition; assay type: biochemical; conditions: initial screening
T6 construct: purchased Reaction Biology
From the text: as §1

[8] = biological target: T7, PKCtheta (Homo sapiens, UniProt Q04759); assay: Reaction Biology kinase activity inhibition; assay type: biochemical; conditions: initial screening
T7 construct: purchased Reaction Biology
From the text: as §1

[9] = system: PKN1-TECR (Tex1Pex10); assay: Reaction Biology kinase activity inhibition; assay type: biochemical; conditions: initial screening
From the text: as §1

[10] = biological target: T8, c-Kit (D816H) (Homo sapiens, UniProt P10721, D816H); assay: Reaction Biology kinase activity inhibition; assay type: biochemical; conditions: initial screening
T8 construct: purchased Reaction Biology
From the text: as §1

[11] = biological target: T9, c-MET (Y1235D) (Homo sapiens, UniProt P08581, Y1235D); assay: Reaction Biology kinase activity inhibition; assay type: biochemical; conditions: initial screening
T9 construct: purchased Reaction Biology
From the text: as §1

[12] = system: AChE; design: method as in PMID 11374978; conditions: read-out: AChE inhibition IC50; cited from earlier work
[13] = system: acetic acid-induced writhing; design: method as in PMID 19557373; conditions: cited from earlier work
[14] = system: BOCCA and MCAO ischemic damage; design: method as in PMID 19801740; conditions: 20 mg/kg, pre or post-treatment; cited from earlier work
[15] = system: experimental sepsis; design: method as in PMID 20157398; conditions: ip 1 ~ 100 mg/kg before LPS/GalN or high-dose LPS (20 mg/kg); cited from earlier work
[16] = biological target: CDK9 (Homo sapiens, UniProt P50750); assay: KINOMEscan competition binding; design: purchased Eurofins DiscoverX (KINOMEscan)
Procedure: Two distinct platforms were used for initial screening with 50 µM DOH vs. DMSO vehicle. The first was the Eurofins DiscoverX KINOMEscan® (Freemont, CA USA) profiling platform, which employed a proprietary active site-directed competition binding assay to quantitatively measure interactions between a test compound (i.e., DOH) and 468 human protein kinases and disease relevant mutant variants either directly (sterically) or indirectly (allosterically) to prevent a kinase binding to its immobilized substrate (ligand). The top 8 hits were subjected to secondary screening verification by DOH concentration-titration for dissociation constant (Kd). For ROCK1 and ROCK2, DA was chosen for Kd titration as well, because it is ~ 10 × higher than D in peripheral circulation due to its resistance to hydrolysis by carboxyesterase-2 (Fig. 1C).

[17] = system: GDH; design: method as in PMID 36455296; conditions: read-out: GDH inhibition IC50; cited from earlier work
[18] = system: HepG2 cells; design: method as in earlier work; conditions: free fatty acid mixture (oleate:palmitate = 2:1); cited from earlier work
[19] = system: DSS-induced colitis; design: method as in PMID 30917627; conditions: ip every other day 0.4 and 4 mg/kg; cited from earlier work
[20] = system: carboxyesterase-2 (CES2); conditions: cited from earlier work
[21] = DOH (50 µM), Data 1 and Data 2, read-out: % Enzyme Activity (relative to DMSO controls)

T3 sequence (P51617 whole entry): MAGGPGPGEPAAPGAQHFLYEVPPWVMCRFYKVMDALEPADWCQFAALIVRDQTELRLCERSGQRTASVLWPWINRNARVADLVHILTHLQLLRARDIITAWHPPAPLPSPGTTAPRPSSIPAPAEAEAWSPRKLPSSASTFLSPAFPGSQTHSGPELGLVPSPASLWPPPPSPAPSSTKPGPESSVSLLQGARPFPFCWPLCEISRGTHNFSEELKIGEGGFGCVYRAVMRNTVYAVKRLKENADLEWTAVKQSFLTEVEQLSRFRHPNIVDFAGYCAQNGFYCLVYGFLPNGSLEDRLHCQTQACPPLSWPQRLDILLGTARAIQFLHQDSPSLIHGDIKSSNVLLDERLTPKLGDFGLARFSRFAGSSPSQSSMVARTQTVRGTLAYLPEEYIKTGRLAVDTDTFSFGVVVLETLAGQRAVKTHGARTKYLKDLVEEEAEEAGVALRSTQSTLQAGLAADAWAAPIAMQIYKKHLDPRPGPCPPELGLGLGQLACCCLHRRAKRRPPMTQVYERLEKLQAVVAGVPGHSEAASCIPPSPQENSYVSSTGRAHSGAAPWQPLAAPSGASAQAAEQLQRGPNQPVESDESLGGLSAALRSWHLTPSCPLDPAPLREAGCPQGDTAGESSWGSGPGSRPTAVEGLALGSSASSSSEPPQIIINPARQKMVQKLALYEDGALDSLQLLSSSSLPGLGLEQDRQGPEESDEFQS
T4 sequence (P45984 whole entry): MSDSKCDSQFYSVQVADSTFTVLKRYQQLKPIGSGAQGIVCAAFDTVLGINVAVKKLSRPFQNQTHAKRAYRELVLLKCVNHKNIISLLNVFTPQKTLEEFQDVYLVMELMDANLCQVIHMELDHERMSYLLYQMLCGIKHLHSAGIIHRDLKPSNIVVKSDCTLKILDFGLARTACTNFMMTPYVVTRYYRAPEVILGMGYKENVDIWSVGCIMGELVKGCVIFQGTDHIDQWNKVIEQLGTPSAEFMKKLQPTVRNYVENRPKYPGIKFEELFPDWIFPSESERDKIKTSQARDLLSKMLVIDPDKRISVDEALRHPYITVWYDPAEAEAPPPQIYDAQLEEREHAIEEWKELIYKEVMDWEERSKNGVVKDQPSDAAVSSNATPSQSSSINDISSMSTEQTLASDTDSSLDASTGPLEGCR
T2 sequence (Q9HAZ1 whole entry): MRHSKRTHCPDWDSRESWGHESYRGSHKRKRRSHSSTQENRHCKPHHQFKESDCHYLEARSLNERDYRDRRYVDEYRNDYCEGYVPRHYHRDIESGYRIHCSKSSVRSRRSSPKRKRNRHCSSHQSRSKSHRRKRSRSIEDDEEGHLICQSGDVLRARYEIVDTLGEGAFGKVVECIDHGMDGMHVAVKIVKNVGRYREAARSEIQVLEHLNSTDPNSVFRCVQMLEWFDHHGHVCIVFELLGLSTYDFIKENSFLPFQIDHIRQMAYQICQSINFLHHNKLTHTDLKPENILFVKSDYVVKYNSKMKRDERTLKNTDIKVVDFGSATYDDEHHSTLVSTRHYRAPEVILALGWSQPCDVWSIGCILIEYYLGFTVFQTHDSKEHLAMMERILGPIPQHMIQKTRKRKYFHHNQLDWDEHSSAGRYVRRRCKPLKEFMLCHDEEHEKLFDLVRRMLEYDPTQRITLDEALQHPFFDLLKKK
T7 sequence (Q04759 whole entry): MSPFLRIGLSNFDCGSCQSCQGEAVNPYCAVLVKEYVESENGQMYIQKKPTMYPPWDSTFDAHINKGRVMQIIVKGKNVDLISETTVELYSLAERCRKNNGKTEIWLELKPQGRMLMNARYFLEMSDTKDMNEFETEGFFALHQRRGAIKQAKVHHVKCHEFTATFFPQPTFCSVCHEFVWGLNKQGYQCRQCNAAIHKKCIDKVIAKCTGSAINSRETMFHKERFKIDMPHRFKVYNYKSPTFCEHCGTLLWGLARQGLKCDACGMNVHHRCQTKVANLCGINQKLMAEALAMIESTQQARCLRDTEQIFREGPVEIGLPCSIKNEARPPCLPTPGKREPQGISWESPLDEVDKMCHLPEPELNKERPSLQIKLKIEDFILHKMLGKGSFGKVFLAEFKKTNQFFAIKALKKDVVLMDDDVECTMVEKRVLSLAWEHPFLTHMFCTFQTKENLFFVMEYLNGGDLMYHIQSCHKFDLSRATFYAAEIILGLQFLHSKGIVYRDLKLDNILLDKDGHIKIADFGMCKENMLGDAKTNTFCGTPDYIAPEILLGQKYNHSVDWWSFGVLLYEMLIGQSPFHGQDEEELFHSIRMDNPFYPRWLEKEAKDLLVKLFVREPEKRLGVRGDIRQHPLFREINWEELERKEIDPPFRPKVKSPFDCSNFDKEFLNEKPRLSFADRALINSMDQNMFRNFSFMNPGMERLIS
T6 sequence (P11309 whole entry): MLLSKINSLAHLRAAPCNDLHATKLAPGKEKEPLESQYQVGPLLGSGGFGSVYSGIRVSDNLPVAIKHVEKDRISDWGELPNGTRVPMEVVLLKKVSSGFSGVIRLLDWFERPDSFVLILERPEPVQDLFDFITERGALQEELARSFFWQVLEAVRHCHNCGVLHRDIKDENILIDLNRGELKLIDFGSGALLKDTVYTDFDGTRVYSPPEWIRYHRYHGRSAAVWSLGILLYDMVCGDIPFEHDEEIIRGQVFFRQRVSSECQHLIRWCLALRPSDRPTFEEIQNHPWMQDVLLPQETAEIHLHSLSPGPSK
T8 sequence (P10721 26-976 D816H): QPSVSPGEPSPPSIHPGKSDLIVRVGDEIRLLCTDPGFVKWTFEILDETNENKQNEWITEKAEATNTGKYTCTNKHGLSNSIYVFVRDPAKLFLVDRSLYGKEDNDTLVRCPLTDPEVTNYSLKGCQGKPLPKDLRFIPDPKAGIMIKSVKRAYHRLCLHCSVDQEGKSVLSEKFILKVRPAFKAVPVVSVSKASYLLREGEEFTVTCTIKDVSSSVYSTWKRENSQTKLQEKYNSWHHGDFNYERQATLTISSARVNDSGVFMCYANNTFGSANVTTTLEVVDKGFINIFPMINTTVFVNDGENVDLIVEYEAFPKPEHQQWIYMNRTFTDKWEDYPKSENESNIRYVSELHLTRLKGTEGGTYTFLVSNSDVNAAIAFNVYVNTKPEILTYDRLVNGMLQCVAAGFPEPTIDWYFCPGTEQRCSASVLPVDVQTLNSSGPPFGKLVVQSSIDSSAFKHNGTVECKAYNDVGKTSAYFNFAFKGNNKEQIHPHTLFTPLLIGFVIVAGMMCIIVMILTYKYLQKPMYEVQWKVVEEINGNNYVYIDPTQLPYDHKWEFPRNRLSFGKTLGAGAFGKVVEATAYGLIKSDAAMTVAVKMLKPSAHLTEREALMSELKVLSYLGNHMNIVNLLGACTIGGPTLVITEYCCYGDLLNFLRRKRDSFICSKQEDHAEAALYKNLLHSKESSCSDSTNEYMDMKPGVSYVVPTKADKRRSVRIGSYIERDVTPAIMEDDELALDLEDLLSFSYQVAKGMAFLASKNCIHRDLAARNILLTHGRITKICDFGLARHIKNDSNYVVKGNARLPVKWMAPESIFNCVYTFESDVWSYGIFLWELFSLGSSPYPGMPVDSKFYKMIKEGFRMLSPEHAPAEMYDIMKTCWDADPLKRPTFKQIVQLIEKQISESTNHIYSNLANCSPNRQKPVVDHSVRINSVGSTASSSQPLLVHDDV
Chain of CDK9 (P50750 whole entry): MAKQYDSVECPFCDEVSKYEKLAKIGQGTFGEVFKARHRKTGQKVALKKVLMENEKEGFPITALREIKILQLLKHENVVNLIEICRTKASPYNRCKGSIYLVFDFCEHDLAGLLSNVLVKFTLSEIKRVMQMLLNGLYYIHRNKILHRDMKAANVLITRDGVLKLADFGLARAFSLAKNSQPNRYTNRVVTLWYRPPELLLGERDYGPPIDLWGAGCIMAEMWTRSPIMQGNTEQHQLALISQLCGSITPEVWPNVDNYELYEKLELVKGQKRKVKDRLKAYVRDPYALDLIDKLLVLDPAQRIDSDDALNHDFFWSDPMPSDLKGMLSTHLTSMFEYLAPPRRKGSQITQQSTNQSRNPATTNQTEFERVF

CC1(C)Oc2cc3oc(=O)ccc3cc2C[C@@H]1O [DOH, decursinol]
DOH % Inhibition ([1]; DOH 50 µM): 27.9%
% Enzyme Activity (relative to DMSO controls) ([1]; DOH (50 µM), Data 1 and Data 2): 75.7% and 68.5%
inhibition at 50 µM ([2]; DOH 50 µM): 27.4%
% Enzyme Activity (relative to DMSO controls) ([2]; DOH (50 µM), Data 1 and Data 2): 72.5%
remaining activity at 50 µM [2, 21]: 72.6%
inhibition at 50 µM ([3]; DOH 50 µM): 25.7%
% Enzyme Activity (relative to DMSO controls) ([3]; DOH (50 µM), Data 1 and Data 2): 74.0%
remaining activity at 50 µM [3, 21]: 74.8%
inhibition at 50 µM ([4]; DOH 50 µM): 38.5%
% Enzyme Activity (relative to DMSO controls) ([4]; DOH (50 µM), Data 1 and Data 2): 58.4%
remaining activity at 50 µM [4, 21]: 64.5%
inhibition at 50 µM ([5]; DOH 50 µM): 29%
% Enzyme Activity (relative to DMSO controls) ([5]; DOH (50 µM), Data 1 and Data 2): 70.1%
remaining activity at 50 µM [5, 21]: 72%
inhibition at 50 µM ([6]; DOH 50 µM): 26.8%
% Enzyme Activity (relative to DMSO controls) ([6]; DOH (50 µM), Data 1 and Data 2): 73.0%
remaining activity at 50 µM [6, 21]: 73.4%
inhibition at 50 µM ([7]; DOH 50 µM): 38.5%
% Enzyme Activity (relative to DMSO controls) ([7]; DOH (50 µM), Data 1 and Data 2): 60.3%
remaining activity at 50 µM [7, 21]: 62.7%
inhibition at 50 µM ([8]; DOH 50 µM): 30.1%
% Enzyme Activity (relative to DMSO controls) ([8]; DOH (50 µM), Data 1 and Data 2): 69.2%
remaining activity at 50 µM [8, 21]: 70.5%
DOH % Inhibition ([9]; DOH 50 µM): 27.6%
% Enzyme Activity (relative to DMSO controls) ([9]; DOH (50 µM), Data 1 and Data 2): 72.6% and 72.4%
inhibition at 50 µM ([10]; DOH 50 µM): 25.5%
% Enzyme Activity (relative to DMSO controls) ([10]; DOH (50 µM), Data 1 and Data 2): 66.8%
remaining activity at 50 µM [10, 21]: 82.2%
inhibition at 50 µM ([11]; DOH 50 µM): 30.7%
% Enzyme Activity (relative to DMSO controls) ([11]; DOH (50 µM), Data 1 and Data 2): 69.0%
remaining activity at 50 µM [11, 21]: 69.5%
IC50 [12]: 28 µM
analgesic effect ([13]; oral 50 mg/kg): efficacious
analgesic effect ([13]; oral 25 or 10 mg/kg): not at 25 or 10 mg/kg
protection against ischemia stroke models [14]: failed to protect
reduction of sepsis lethality ED50 [15]: ~ 10 mg/kg
kinase bound, % of control at 50 µM ([16]; read-out: Substrate bound % Control): 12%
Kd ([16]; validation Kd titration, 0.003 to 50 µM): > 50 µM

C/C=C(/C)C(=O)O[C@H]1Cc2cc3ccc(=O)oc3cc2OC1(C)C [DA, decursinol angelate]
IC50 [17]: ~1400 nM and 1400 nM
lipid accumulation [18]: suppressed lipid accumulation
severity of colitis [19]: attenuated the severity of colitis
CES2 contribution to metabolism to DOH [20]: not
